Laboratory results: PubChem BioAssay (NCI)
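Test compounds were applied to cells in 96-well plates for 48 hours at 5 doses. TGI marks complete inhibition of growth.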

How the values were obtained:
Assay in all cases: growth of human tumour cells (NCI), 48 h
[1] = tested on: A549 NSCLC
[2] = tested on: NCI-H460 lung
[3] = tested on: TK-10 renal
[4] = tested on: 786-0 renal
[5] = tested on: SF-539 CNS
[6] = tested on: U251 CNS
[7] = tested on: MOLT-4 leukemia
[8] = tested on: A498 renal
[9] = tested on: SR leukemia
[10] = tested on: HOP-62 NSCLC
[11] = tested on: LOX IMVI melanoma
[12] = tested on: NCI-H23 lung
[13] = tested on: PC-3 prostate

SMILES	TGI [1]	TGI [2]	TGI [3]	TGI [4]	TGI [5]	TGI [6]	TGI [7]	TGI [8]	TGI [9]	TGI [10]	TGI [11]	TGI [12]	TGI [13]
O=C(CC(C(=O)c1ccsc1)c1cccs1)c1cccs1 (centres undefined)	> 100 µM	> 100 µM	> 100 µM	> 100 µM	> 100 µM	> 100 µM	> 100 µM	> 100 µM	> 100 µM	> 100 µM	> 100 µM	> 100 µM	–
c1cc(CSP234N5CCN2CCN3CCN4CC5)cc(CSP234N5CCN2CCN3CCN4CC5)c1	> 100 µM	> 100 µM	> 100 µM	> 100 µM	55.5 µM	56.2 µM	49.5 µM	–	28.2 µM	> 100 µM	35.1 µM	> 100 µM	> 100 µM
COC(OC)c1cccc2c1C(=O)CCC1(CC2)OCCCCO1	> 100 µM	> 100 µM	> 100 µM	> 100 µM	> 100 µM	> 100 µM	> 100 µM	> 100 µM	–	> 100 µM	> 100 µM	> 100 µM	–
C=CCCCCCCCCCOC1C=CC(O)C(CO)O1 (centres undefined)	> 100 µM	63.7 µM	> 100 µM	> 100 µM	> 100 µM	> 100 µM	86.7 µM	> 100 µM	–	> 100 µM	> 100 µM	97.5 µM	86.4 µM
COc1ccc(Cl)cc1NC(=O)O/N=C(\Cl)C(C)C	37.9 µM	37.6 µM	6.93 µM	27.1 µM	29.4 µM	> 59.4 µM	6.11 µM	46.8 µM	–	35.2 µM	5.06 µM	47.7 µM	32.3 µM
Cc1ccc(-c2ccc3c(c2)Sc2ccccc2O3)n1C	> 100 µM	> 36.5 µM	> 100 µM	> 100 µM	–	> 100 µM	> 67.8 µM	34 µM	> 100 µM	> 100 µM	> 100 µM	> 100 µM	–
O=C(O)COc1c(Cl)cc(Cl)c(C(c2c(Cl)cc(Cl)c(OCC(=O)O)c2Cl)C(Cl)(Cl)Cl)c1Cl	83.8 µM	89.7 µM	95.8 µM	> 100 µM	> 100 µM	77.4 µM	> 100 µM	> 100 µM	–	15.7 µM	> 100 µM	62.3 µM	> 100 µM
CN(CCNC(=O)c1nn(C)c2c1Cc1ccccc1-2)CCNC(=O)c1nn(C)c2c1Cc1ccccc1-2	33.3 µM	31.7 µM	29.6 µM	27.7 µM	27.6 µM	28.9 µM	31.2 µM	28.7 µM	–	34.2 µM	34.8 µM	32.3 µM	47.6 µM
O=C1C=C2SC3C[C@@]24CC1(O)[N+]1=c2c4c(c(O)c4c2=C(C=N4)CC1)N3	4.11 µM	4.26 µM	–	–	2.85 µM	3.14 µM	0.859 µM	3.33 µM	–	3.24 µM	1.55 µM	2.71 µM	–
COC1=CC(=O)[C@@]2(C)C(C)[C@H](c3ccccc3)[C@H]2C1=O (some centres undefined)	> 100 µM	> 100 µM	> 100 µM	> 100 µM	> 100 µM	> 100 µM	> 100 µM	> 100 µM	> 100 µM	> 100 µM	> 100 µM	> 100 µM	–
Cc1cc2nc3c(N)nn(CCCN(C)C)c3nc2cc1C	> 100 µM	> 100 µM	> 100 µM	> 100 µM	> 100 µM	> 100 µM	–	> 100 µM	–	> 100 µM	–	> 100 µM	> 100 µM
O=C1OCc2nc3c(c(-c4ccccc4C(F)(F)F)c21)C(=O)OC3	> 100 µM	> 100 µM	> 100 µM	> 100 µM	> 100 µM	> 100 µM	> 100 µM	> 100 µM	> 100 µM	> 100 µM	> 100 µM	> 100 µM	–
CCOC(=O)c1c(NS(=O)(=O)c2ccccc2)sc2c1CCCC2	> 100 µM	> 100 µM	> 100 µM	> 100 µM	> 100 µM	–	> 100 µM	> 100 µM	> 100 µM	> 100 µM	–	> 100 µM	> 100 µM
Cc1cc2c3ccccc3n3c2c2c1OC1(C)CCC(C2C1)C3(C)C (centres undefined)	> 25 µM	> 25 µM	> 25 µM	> 25 µM	> 25 µM	> 25 µM	> 25 µM	–	> 25 µM	> 25 µM	> 25 µM	–	–
CCCCCCCC(=O)NC(C)(C)C(=O)NCC(=O)NC(CC(C)C)C(=O)NC(C)(C)C(=O)NCC(=O)NCC(=O)NC(CC(C)C)C(=O)NC(C)(C)C(=O)NCC(=O)NC(C(=O)NC(CO)CC(C)C)C(C)CC (centres undefined)	8.01 µM	8.11 µM	8.17 µM	8.11 µM	–	5.33 µM	9.43 µM	–	8.63 µM	8.12 µM	6.88 µM	7.49 µM	7.08 µM
CCN(CC)C(=O)Cc1[nH][nH]c(=O)c1C(=O)N(CC)CC	> 100 µM	> 100 µM	> 100 µM	> 100 µM	> 100 µM	> 100 µM	> 100 µM	> 100 µM	> 100 µM	> 100 µM	> 100 µM	> 100 µM	–
COc1ccc(C(CC(=O)c2cccs2)C(=O)c2ccc3c(c2)OCO3)cc1 (centres undefined)	> 100 µM	> 100 µM	> 100 µM	–	> 100 µM	> 100 µM	> 100 µM	> 100 µM	–	> 100 µM	> 100 µM	> 100 µM	> 100 µM
O=C1CC2(CCN(Cc3ccccc3)CC2)C(=O)N1N1CCCCC1	> 100 µM	> 100 µM	> 100 µM	> 100 µM	> 100 µM	> 100 µM	> 100 µM	> 100 µM	–	> 100 µM	> 100 µM	> 100 µM	> 100 µM
